pIC50: −log10 of the molar value.
Assays:
Assay type in all cases: cell-based
Z138 cells = test: MTT cell proliferation assay, Z138 cells; settings: Homo sapiens, Z-138, incubation approximately 64-72 hours
Method: (§1) The MTT cell proliferation assay was used to study the cytotoxic properties of the compounds. The assay was performed according to the method described by Roche Molecular Biochemicals, with minor modifications. The assay is based on the cleavage of the tetrazolium salt, MTT, in the presence of an electron-coupling reagent. The water-insoluble formazan salt produced must be solubilized in an additional step. Cells grown in a 96-well tissue culture plate were incubated with the MTT solution for approximately 4 hours. After this incubation period, a water-insoluble formazan dye formed. After solubilization, the formazan dye was quantitated using a scanning multi-well spectrophotometer (ELISA reader). […] The cells were seeded at 5,000-10,000 cells in each well of 96-well plate in 100 μL of fresh culture medium and were allowed to attach overnight. The stock solutions of the compounds were diluted in 100 μL cell culture medium to obtain eight concentrations of each test compound, ranging from 1 nM to 30 μM. […] All optical densities were measured at 490 nm using a Vmax Kinetic Microplate Reader (Molecular Devices). In most cases, the assay was performed in duplicate and the results were presented as a mean percent inhibition to the negative control±SE. The following formula was used to calculate the percent of inhibition. Inhibition (%)=(1−(ODo/OD))×100.
(§2) The compounds were tested against MS751, Z138 and 3T3 cells. The MS751 cell line is derived from a metastasis to lymph node of human cervix from a patient diagnosed with squameous cell carcinoma of the cervix. The […] cell line is a mature B-cell acute lymphoblastic leukemia cell line derived from a patient with chronic lymphocytic leukemia. 3T3 cells are standard fibroblast cells; they were originally isolated from Swiss mouse embryo tissue.

MS751 cells = test: MTT cell proliferation assay, MS751 cells; settings: Homo sapiens, incubation approximately 64-72 hours
Method: as §1, §2

3T3 cells = test: MTT cell proliferation assay, 3T3 cells; settings: Mus musculus, NIH3T3; 3T3 fibroblast cells; incubation approximately 64-72 hours
Method: as §1, §2

SMILES	pIC50 (Z138 cells)	pIC50 (MS751 cells)	pIC50 (3T3 cells)
CC(=O)c1ccc(-c2ccc(OCCNC(=O)/C=C/c3cccnc3)c(Cl)c2)s1 [Compound 300, (E)-N-(2-(4-(5-acetylthiophen-2-yl)-2-chlorophenoxy)ethyl)-3-(pyridin-3-yl)acrylamide]	5.30 to 7.00	5.30 to 7.00	< 5.00
CC(O)c1ccc(-c2ccc(OCCNC(=O)/C=C/c3cccnc3)c(Cl)c2)s1 (stereo not drawn) [Compound 301, (E)-N-(2-(2-chloro-4-(5-(1-hydroxyethyl)thiophen-2-yl)phenoxy)ethyl)-3-(pyridin-3-yl) acrylamide]	5.30 to 7.00	> 7.00	5.30 to 7.00
CC(=O)c1ccc(-c2cccc(OCCNC(=O)/C=C/c3cccnc3)c2Cl)s1 [Compound 302, (E)-N-(2-(3-(5-acetylthiophen-2-yl)-2-chlorophenoxy)ethyl)-3-(pyridin-3-yl) acrylamide]	5.30 to 7.00	> 7.00	5.30 to 7.00
CC(=O)c1ccc(-c2ccc(Cl)c(OCCNC(=O)/C=C/c3cccnc3)c2)s1 [Compound 303, (E)-N-(2-(5-(5-acetylthiophen-2-yl)-2-chlorophenoxy)ethyl)-3-(pyridin-3-yl)acrylamide]	5.30 to 7.00	5.30 to 7.00	< 5.00
CC(=O)c1ccc(-c2ccc(OCCNC(=O)/C=C/c3cccnc3Cl)c(Cl)c2)s1 [Compound 304, (E)-N-(2-(4-(5-acetylthiophen-2-yl)-2-chlorophenoxy)ethyl)-3-(2-chloropyridin-3-yl) acrylamide]	< 5.00	5.00 to 5.30	< 5.00
CC(=O)c1ccc(-c2ccc(OCCNC(=O)/C=C/c3cccnc3C)c(Cl)c2)s1 [Compound 305, (E)-N-(2-(4-(5-acetylthiophen-2-yl)-2-chlorophenoxy)ethyl)-3-(2-methylpyridin-3-yl) acrylamide]	< 5.00	< 5.00	< 5.00
CC(=O)c1ccc(-c2ccc(OCCNC(=O)CCc3cccnc3)c(Cl)c2)s1 [Compound 306, N-(2-(4-(5-acetylthiophen-2-yl)-2-chlorophenoxy)ethyl)-3-(pyridin-3-yl)propanamide]	< 5.00	5.00 to 5.30	< 5.00
CC(=O)c1ccc(-c2ccc(OCCNC(=O)/C=C/c3c(C)noc3C)c(Cl)c2)s1 [Compound 307, (E)-N-(2-(4-(5-acetylthiophen-2-yl)-2-chlorophenoxy)ethyl)-3-(3,5-dimethylisoxazol-4-yl)acrylamide]	< 5.00	< 5.00	< 5.00
CC(=O)c1ccc(-c2ccc(OCCNC(=O)/C=C/c3ccc(N)nc3)c(Cl)c2)s1 [Compound 308, (E)-N-(2-(4-(5-acetylthiophen-2-yl)-2-chlorophenoxy)ethyl)-3-(6-aminopyridin-3-yl) acrylamide]	5.30 to 7.00	5.30 to 7.00	< 5.00
CC(=O)c1ccc(-c2ccc(OCCNC(=O)C#Cc3cccnc3)c(Cl)c2)s1 [Compound 309, N-(2-(4-(5-acetylthiophen-2-yl)-2-chlorophenoxy)ethyl)-3-(pyridin-3-yl)propiolamide]	< 5.00	< 5.00	< 5.00
CC(=O)c1ccc(-c2ccc(OCCNC(=O)/C=C/c3cccnn3)c(Cl)c2)s1 [Compound 310, (E)-N-(2-(4-(5-acetylthiophen-2-yl)-2-chlorophenoxy)ethyl)-3-(pyridazin-3-yl)acrylamide]	< 5.00	< 5.00	< 5.00
CC(=O)c1ccc(-c2ccc(OCCN(C)C(=O)/C=C/c3cccnc3)c(Cl)c2)s1 [Compound 311, (E)-N-(2-(4-(5-acetylthiophen-2-yl)-2-chlorophenoxy)ethyl)-N-methyl-3-(pyridin-3-yl)acrylamide]	5.30 to 7.00	5.30 to 7.00	5.30 to 7.00
CC(=O)c1ccc(-c2ccccc2OCCNC(=O)/C=C/c2cccnc2)s1 [Compound 312, (E)-N-(2-(2-(5-acetylthiophen-2-yl)phenoxy)ethyl)-3-(pyridin-3-yl)acrylamide]	5.30 to 7.00	5.30 to 7.00	5.30 to 7.00
CN1CCN(C(=O)c2ccc(-c3ccc(OCCNC(=O)/C=C/c4ccc(N)nc4)c(Cl)c3)cc2)CC1 [Compound 313, (E)-3-(6-aminopyridin-3-yl)-N-(2-(3-chloro-4′-(4-methylpiperazine-1-carbonyl)biphenyl-4-yloxy)ethyl)acrylamide]	> 7.00	> 7.00	5.30 to 7.00
Cc1cc(-c2ccc(OCCNC(=O)/C=C/c3ccc(N)nc3)c(Cl)c2)ccc1C(=O)N1CCOCC1 [Compound 314, (E)-3-(6-aminopyridin-3-yl)-N-(2-(3-chloro-3′-methyl-4′-(morpholine-4-carbonyl)biphenyl-4-yloxy)ethyl)acrylamide]	> 7.00	> 7.00	5.30 to 7.00
C=C(C)c1ccc(-c2ccc(OCCNC(=O)/C=C/c3cccnc3)c(Cl)c2)s1 [Compound 315, (E)-N-(2-(2-chloro-4-(5-(prop-1-en-2-yl)thiophen-2-yl)phenoxy)ethyl)-3-(pyridin-3-yl)acrylamide]	5.30 to 7.00	5.00 to 5.30	5.00 to 5.30
Nc1ccc(/C=C/C(=O)NCCOc2ccc(-c3ccc(C(=O)N4CCOCC4)cc3)cc2Cl)cn1 [Compound 316, (E)-3-(6-aminopyridin-3-yl)-N-(2-(3-chloro-4′-(morpholine-4-carbonyl)biphenyl-4-yloxy)ethyl)acrylamide]	> 7.00	> 7.00	5.30 to 7.00
Nc1ccc(/C=C/C(=O)NCCOc2ccc(-c3cccc(C(=O)N4CCOCC4)c3)cc2Cl)cn1 [Compound 317, (E)-3-(6-aminopyridin-3-yl)-N-(2-(3-chloro-3′-(morpholine-4-carbonyl)biphenyl-4-yloxy)ethyl)acrylamide]	> 7.00	> 7.00	< 5.00
CC(C)(O)c1ccc(-c2ccc(OCCNC(=O)/C=C/c3ccc(N)nc3)c(Cl)c2)s1 [Compound 319, (E)-3-(6-aminopyridin-3-yl)-N-(2-(2-chloro-4-(5-(2-hydroxypropan-2-yl)thiophen-2-yl)phenoxy)ethyl)acrylamide]	5.30 to 7.00	5.30 to 7.00	< 5.00
CC(C)(O)c1ccc(-c2ccc(OCCNC(=O)/C=C/c3cccnc3)c(Cl)c2)s1 [Compound 320, (E)-N-(2-(2-chloro-4-(5-(2-hydroxypropan-2-yl)thiophen-2-yl)phenoxy)ethyl)-3-(pyridin-3-yl)acrylamide]	5.30 to 7.00	5.30 to 7.00	5.00 to 5.30
Nc1ccc(/C=C/C(=O)NCCOc2ccc(-c3ccc(C(=O)N4CCOCC4)nc3)cc2Cl)cn1 [Compound 321, (E)-3-(6-aminopyridin-3-yl)-N-(2-(2-chloro-4-(6-(morpholine-4-carbonyl)pyridin-3-yl)phenoxy)ethyl)acrylamide]	> 7.00	> 7.00	< 5.00
CC(=O)c1ccc(-c2ccc(NCCNC(=O)/C=C/c3cccnc3)c(Cl)c2)s1 [Compound 322, (E)-N-(2-(4-(5-acetylthiophen-2-yl)-2-chlorophenylamino)ethyl)-3-(pyridin-3-yl)acrylamide]	5.30 to 7.00	5.30 to 7.00	< 5.00
CC(=O)c1ccc(-c2ccc(OC(C)(C)CNC(=O)/C=C/c3cccnc3)c(Cl)c2)s1 [Compound 323, (E)-N-(2-(4-(5-acetylthiophen-2-yl)-2-chlorophenoxy)-2-methylpropyl)-3-(pyridin-3-yl)acrylamide]	5.30 to 7.00	5.00 to 5.30	< 5.00
CN(C)C(=O)c1ccc(-c2ccc(OCCNC(=O)/C=C/c3ccc(N)nc3)c(Cl)c2)cc1 [Compound 325, (E)-4′-(2-(3-(6-aminopyridin-3-yl)acrylamido)ethoxy)-3′-chloro-N,N-dimethylbiphenyl-4-carboxamide]	5.30 to 7.00	5.30 to 7.00	< 5.00
Nc1ccc(/C=C/C(=O)NCCOc2ccc(-c3ccc(C(=O)N4CCNCC4)cc3)cc2Cl)cn1 [Compound 326, (E)-3-(6-aminopyridin-3-yl)-N-(2-(3-chloro-4′-(piperazine-1-carbonyl)biphenyl-4-yloxy)ethyl)acrylamide]	> 7.00	> 7.00	5.30 to 7.00
CC(=O)c1ccc(-c2ccc(OCCNC(=O)/C=C\c3cccnc3)c(Cl)c2)s1 [Compound 327, (Z)—N-(2-(4-(5-acetylthiophen-2-yl)-2-chlorophenoxy)ethyl)-3-(pyridin-3-yl)acrylamide]	5.30 to 7.00	5.00 to 5.30	< 5.00
Nc1ccc(/C=C/C(=O)NCCOc2ccc(-c3cnc(C(=O)N4CCOCC4)nc3)cc2Cl)cn1 [Compound 328, (E)-3-(6-aminopyridin-3-yl)-N-(2-(2-chloro-4-(2-(morpholine-4-carbonyl)pyrimidin-5-yl)phenoxy)ethyl)acrylamide]	5.30 to 7.00	5.30 to 7.00	< 5.00
